In the supplement of paper PMC8149375:

Experiments:
Conditions in all cases: treatment: drug + dasatinib (fixed dose, not stated); 5 days
[1] = system: 769-P; experiment: minimum viability across doses, drug + dasatinib, relative to DMSO (fraction); higher = less growth inhibition
Experimental: (§1)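 Primary HTS combination arm: 8 RCC cell lines treated with 8 doses (up to 10 uM) of each library drug plus a fixed dose of dasatinib (dose not stated) for 5 days; viability read by CellTiter-Glo and normalised to DMSO. GI50 was fitted with XLfit, AUC is the area under the dose-response curve, and minimum viability is the lowest fraction of DMSO viability across doses.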

[2] = system: UO-31; experiment: as above
Experimental: as §1

[3] = system: TK-10; experiment: as above
Experimental: as §1

[4] = system: 786-O; experiment: as above
Experimental: as §1

[5] = system: CAKI-1; experiment: as above
Experimental: as §1

[6] = system: SN12C; experiment: as above
Experimental: as §1

[7] = system: ACHN; experiment: as above
Experimental: as §1

[8] = system: A498; experiment: as above
Experimental: as §1

[9] = system: 769-P; experiment: GI50 of drug in presence of dasatinib; higher = less potent
Experimental: as §1

[10] = system: UO-31; experiment: as above
Experimental: as §1

[11] = system: TK-10; experiment: as above
Experimental: as §1

[12] = system: 786-O; experiment: as above
Experimental: as §1

[13] = system: CAKI-1; experiment: as above
Experimental: as §1

[14] = system: SN12C; experiment: as above
Experimental: as §1

[15] = system: ACHN; experiment: as above
Experimental: as §1

[16] = system: A498; experiment: as above
Experimental: as §1

[17] = system: 769-P; experiment: AUC of dose-response viability curve, drug + dasatinib, normalised to DMSO (arbitrary (AUC of normalised viability)); higher = less growth inhibition
Experimental: as §1

[18] = system: UO-31; experiment: as above
Experimental: as §1

[19] = system: TK-10; experiment: as above
Experimental: as §1

[20] = system: 786-O; experiment: as above
Experimental: as §1

[21] = system: CAKI-1; experiment: as above
Experimental: as §1

[22] = system: SN12C; experiment: as above
Experimental: as §1

[23] = system: ACHN; experiment: as above
Experimental: as §1

[24] = system: A498; experiment: as above
Experimental: as §1

Row | SMILES | minimum viability across doses [1] | minimum viability across doses [2] | minimum viability across doses [3] | minimum viability across doses [4] | minimum viability across doses [5] | minimum viability across doses [6] | minimum viability across doses [7] | minimum viability across doses [8] | GI50 of drug [9] | GI50 of drug [10] | GI50 of drug [11] | GI50 of drug [12] | GI50 of drug [13] | GI50 of drug [14] | GI50 of drug [15] | GI50 of drug [16] | AUC of dose-response viability curve [17] | AUC of dose-response viability curve [18] | AUC of dose-response viability curve [19] | AUC of dose-response viability curve [20] | AUC of dose-response viability curve [21] | AUC of dose-response viability curve [22] | AUC of dose-response viability curve [23] | AUC of dose-response viability curve [24]
1 | O=c1[nH]c2ccc(Cl)cc2c(N[C@@H]2CN3CCC2CC3)c1-c1nc2ccccc2[nH]1 [CHIR-124] + Cc1nc(Nc2ncc(C(=O)Nc3c(C)cccc3Cl)s2)cc(N2CCN(CCO)CC2)n1 [dasatinib] | 0.0198 | 0.00945 | 0.151 | 0.00497 | 0.0428 | 0.00873 | 0.018 | 0.0177 | 0.101 µM | 0.0739 µM | 0.0706 µM | 0.0374 µM | 0.0871 µM | 1 µM | 0.0112 µM | 0.293 µM | 1.31 | 1.52 | 1.37 | 0.817 | 1.3 | 1.76 | 0.737 | 2.13
2 | CC(O)C(=O)O.CC(O)C(=O)O.CN1CCN(c2ccc3nc(-c4c(N)c5c(F)cccc5[nH]c4=O)[nH]c3c2)CC1 [Dovitinib Dilactic acid (TKI258 Dilactic acid)] + Cc1nc(Nc2ncc(C(=O)Nc3c(C)cccc3Cl)s2)cc(N2CCN(CCO)CC2)n1 [dasatinib] | 0.0213 | 0.124 | 0.289 | 0.139 | 0.0435 | 0.0502 | 0.0981 | 0.303 | 1.75 µM | 1.32 µM | 1.07 µM | 3.48 µM | 0.0982 µM | 0.352 µM | 0.0117 µM | 4.27 µM | 2.2 | 3.44 | 2.12 | 2.64 | 1.45 | 1.8 | 0.989 | 3.14
3 | CCN(CC)CCNC(=O)c1c(C)[nH]c(/C=C2\C(=O)Nc3ccc(F)cc32)c1C.O=C(O)C[C@H](O)C(=O)O [Sunitinib Malate (Sutent)] + Cc1nc(Nc2ncc(C(=O)Nc3c(C)cccc3Cl)s2)cc(N2CCN(CCO)CC2)n1 [dasatinib] | 0.0812 | 0.0138 | 0.221 | 0.0195 | 0.00649 | 0.0218 | 0.0769 | 0.167 | 3.14 µM | 1.02 µM | 2.86 µM | 2.52 µM | 0.496 µM | 1.53 µM | 0.281 µM | 2.02 µM | 2.26 | 2.59 | 2.52 | 2.49 | 1.81 | 1.88 | 1.58 | 2.52
4 | Nc1cccc2c1CN(C1CCC(=O)NC1=O)C2=O (stereo unspecified) [Lenalidomide (Revlimid)] + Cc1nc(Nc2ncc(C(=O)Nc3c(C)cccc3Cl)s2)cc(N2CCN(CCO)CC2)n1 [dasatinib] | 0.497 | 1.19 | 0.666 | 0.488 | 0.656 | 0.706 | 0.503 | 0.989 | > 10 µM | > 10 µM | > 10 µM | < 0.003 µM | > 10 µM | > 10 µM | > 10 µM | > 10 µM | 2.51 | 4.59 | 2.56 | 2.61 | 2.41 | 2.55 | 2.05 | 3.71
5 | CC(=O)NCC(=O)N1[C@H]2CC[C@H]1c1cc(Nc3ncc(C(F)(F)F)c(NC4CCC4)n3)ccc12 + Cc1nc(Nc2ncc(C(=O)Nc3c(C)cccc3Cl)s2)cc(N2CCN(CCO)CC2)n1 [dasatinib] | 0.028 | 0.0156 | 0.116 | 0.0101 | 0.0773 | 0.0154 | 0.0109 | 0.0199 | 0.118 µM | 0.711 µM | 0.429 µM | 0.0181 µM | 0.0306 µM | 0.128 µM | 0.0241 µM | 0.625 µM | 1.61 | 2.3 | 1.83 | 0.86 | 1.11 | 1.47 | 1.17 | 2.34
6 | O=C1NCCc2[nH]c(-c3ccncc3)cc21 + Cc1nc(Nc2ncc(C(=O)Nc3c(C)cccc3Cl)s2)cc(N2CCN(CCO)CC2)n1 [dasatinib] | 0.463 | 0.0107 | 0.185 | 0.00389 | 0.0883 | 0.0225 | 0.0122 | 0.0141 | 8.35 µM | 2.31 µM | 2.04 µM | 0.196 µM | 0.718 µM | 4.17 µM | 0.578 µM | 3.11 µM | 2.35 | 3.26 | 2.27 | 1.73 | 1.98 | 2.23 | 1.72 | 3.35
7 | O=C(NCc1ccccc1)c1csc(Nc2ccncn2)n1 [Thiazovivin] + Cc1nc(Nc2ncc(C(=O)Nc3c(C)cccc3Cl)s2)cc(N2CCN(CCO)CC2)n1 [dasatinib] | 0.318 | 0.0123 | 0.494 | 0.327 | 0.175 | 0.694 | 0.225 | 0.777 | 2.83 µM | 1.65 µM | > 10 µM | 2.39 µM | 1.87 µM | > 10 µM | 2.07 µM | > 10 µM | 2.27 | 2.79 | 2.73 | 2.04 | 2.04 | 2.56 | 2.12 | 3.03
8 | CN(C)Cc1cccc(N/C(=C2\C(=O)Nc3cc(C(=O)N(C)C)ccc32)c2ccccc2)c1 + Cc1nc(Nc2ncc(C(=O)Nc3c(C)cccc3Cl)s2)cc(N2CCN(CCO)CC2)n1 [dasatinib] | 0.561 | 0.0229 | 0.386 | 0.348 | 0.0645 | 0.229 | 0.0657 | 0.473 | > 10 µM | 7.14 µM | 5.62 µM | 3.74 µM | 1.12 µM | 2.48 µM | 0.631 µM | 9.88 µM | 2.43 | 3.62 | 2.49 | 2.19 | 2.09 | 2.35 | 1.61 | 3.5
9 | O=C1C(=O)N(Cc2ccc(Cl)c(Cl)c2)c2ccccc21 [Apoptosis Activator 2] + Cc1nc(Nc2ncc(C(=O)Nc3c(C)cccc3Cl)s2)cc(N2CCN(CCO)CC2)n1 [dasatinib] | 0.486 | 0.211 | 0.454 | 0.0758 | 0.187 | 0.265 | 0.295 | 0.411 | 8.61 µM | 9.07 µM | 7.39 µM | > 10 µM | 2.23 µM | 4.6 µM | 1.99 µM | 8.37 µM | 2.46 | 4.31 | 2.34 | 1.72 | 2.19 | 2.47 | 1.92 | 3.56
10 | Nc1ncnc2c1c(-c1cnc3[nH]ccc3c1)nn2C1CCCC1 [PP-121] + Cc1nc(Nc2ncc(C(=O)Nc3c(C)cccc3Cl)s2)cc(N2CCN(CCO)CC2)n1 [dasatinib] | 0.0299 | 0.00907 | 0.0102 | 0.00453 | 0.00718 | 0.0517 | 0.0126 | 0.0684 | 0.415 µM | 0.896 µM | 0.261 µM | 0.0738 µM | 0.126 µM | 0.337 µM | 0.132 µM | 1.27 µM | 1.74 | 2.71 | 1.67 | 1.44 | 1.41 | 1.73 | 1.41 | 2.5
11 | CCCS(=O)(=O)Nc1ccc(F)c(C(=O)c2c[nH]c3ncc(-c4ccc(Cl)cc4)cc23)c1F [Vemurafenib (PLX4032)] + Cc1nc(Nc2ncc(C(=O)Nc3c(C)cccc3Cl)s2)cc(N2CCN(CCO)CC2)n1 [dasatinib] | 0.618 | 0.853 | 0.6 | 0.326 | 0.57 | 0.719 | 0.403 | 0.838 | > 10 µM | > 10 µM | 9.22 µM | 3.84 µM | > 10 µM | > 10 µM | 5.76 µM | > 10 µM | 2 | 3.4 | 2.4 | 2.11 | 2.39 | 2.62 | 2.05 | 3.37
12 | CNC(=O)c1nn(C)c2c1C(C)(C)Cc1cnc(Nc3ccc(N4CCN(C)CC4)cc3)nc1-2 + Cc1nc(Nc2ncc(C(=O)Nc3c(C)cccc3Cl)s2)cc(N2CCN(CCO)CC2)n1 [dasatinib] | 0.0274 | 0.0113 | 0.189 | 0.00492 | 0.0344 | 0.0108 | 0.0123 | 0.0243 | 0.245 µM | 0.279 µM | 0.137 µM | 0.0355 µM | 0.0388 µM | 0.261 µM | 0.022 µM | 3.47 µM | 1.77 | 2.02 | 1.63 | 1.35 | 1.11 | 1.71 | 1.03 | 3.23
13 | Cc1[nH]c(/C=C2/C(=O)Nc3ccc(S(=O)(=O)N(C)c4cccc(Cl)c4)cc32)c(C)c1C(=O)N1CCN(C)CC1 + Cc1nc(Nc2ncc(C(=O)Nc3c(C)cccc3Cl)s2)cc(N2CCN(CCO)CC2)n1 [dasatinib] | 0.366 | 0.448 | 0.719 | 0.279 | 0.173 | 0.443 | 0.209 | 0.605 | 5.76 µM | 9.29 µM | > 10 µM | 3.95 µM | 3.07 µM | 6.07 µM | 0.022 µM | > 10 µM | 2.35 | 3.25 | 2.82 | 2.29 | 2.23 | 2.43 | 1.62 | 3.28
14 | COc1cc2c(Nc3ccc(Br)cc3F)ncnc2cc1OCC1CCN(C)CC1 [Vandetanib (Zactima)] + Cc1nc(Nc2ncc(C(=O)Nc3c(C)cccc3Cl)s2)cc(N2CCN(CCO)CC2)n1 [dasatinib] | 0.157 | 0.0159 | 0.161 | 0.332 | 0.0882 | 0.456 | 0.0849 | 0.366 | 1.13 µM | 1.88 µM | 1.49 µM | 5.42 µM | 2.21 µM | > 10 µM | 0.305 µM | 7.71 µM | 2.01 | 2.64 | 2.46 | 2.55 | 2.07 | 2.48 | 1.82 | 3.11
